Test results taken from patent US4347371A, “Disulfide compounds” (Santen Pharmaceutical Co., Ltd., priority 1978, dated 1982).
Where two headings read alike, the source gives them in different places.

Experiments:
[1] = system: angiotensin I-converting enzyme; test: Suppressive effect on the pressor response to angiotensin I in unanesthetized rats, oral administration (angiotensin I-converting enzyme inhibition); type: in vivo, Male Wistar strain rats; settings: rat, angiotensin I 300 ng/kg i.v.
Procedure: As recently it has been clear that the compounds inhibiting angiotensin I-converting enzyme may be the curative potency against both renal hypertension and essential hypertension, the compounds [I] of this invention are evaluated as antihypertensive agents by the following method.
Male Wistar strain rats weighing 200-300 g were used. Under ether anesthesia, polyethylene cannulae are inserted into carotid artery and jugular vein. The cannula to carotid artery is connected to an electric transducer, while the cannula to jugular vein is connected to an apparatus for continuous infusion. After the complete recovery from anesthesia, angiotensin I is infused intravenously in a dose of 300 ng/kg by the apparatus for continuous infusion, and the pressor response is recorded by polygraph (Nihon Koden, RM-150). The compounds of this invention suspended in 0.5% tragacanth solution are administered orally in a dose of 0.3 ml per 100 g of body weight, and the pressor response to angiotensin I infused intravenously is measured with time.

Aldose reductase = target: T1, Aldose reductase (Rattus norvegicus, UniProt P07943); test: Inhibitory activity against aldose reductase purified from rat lenses (absorbance at 340 nm); type: biochemical
T1 construct: Aldose reductase is purified from rat lenses; from tissue; host or cells: rat lens

[2] = Acute toxicity test in mice, oral; set-up: species or system male ddy-std. strain mice; settings: mouse, in vivo, male ddy-std. mice, 0.5% tragacanth suspension
Procedure: The male ddy-std. strain mice (4 weeks of age, weighing 19-21 g) were placed in a breeding room of constant temperature and humidity (23°±1° C., 55±5%) and fed freely pellet diet (CE-2, Clea Japan, Inc.) and water ad. libitum for a week. The mice showing the normal growth were selected for the experiment.
Test compound is suspended in 0.5% tragacanth solution, and administered orally in a dose of 0.5 ml per 20 g B.W.

[3] = pH 6.2, DL-glyceraldehyde 4×10^-4 M, NADPH 5×10^-5 M, read-out: IC50 (molar concentration producing 50% inhibition of aldose reductase)

| Compound | Inhibition (%) of pressor response to angiotensin I ([1]; dose 1.0 mg/kg oral, 25 min) [%] | Inhibition (%) of pressor response to angiotensin I ([1]; dose 1.0 mg/kg oral, 65 min) [%] | IC50 (Aldose reductase; [3]) [nM] | also measured |
| --- | --- | --- | --- | --- |
| CC(C)(C)C(=O)OCOC(=O)[C@@H]1CSC(c2ccccc2O)N1C(=O)CCSSCCC(=O)N1C(c2ccccc2O)SC[C@H]1C(=O)OCOC(=O)C(C)(C)C (stereo partly drawn) [Compound 49, Bis[(2,2-dimethyl-1-oxopropoxy)methyl](4R,4'R)-3,3'-[3,3'-dithiobis(propanoyl)]bis[2-(2-hydroxyphenyl)-4-thiazolidinecarboxylate]] | – | – | – | Inhibition (%) of pressor response to angiotensin I ([1]; dose 1.3 mg/kg oral, 25 min): 35%; Inhibition (%) of pressor response to angiotensin I ([1]; dose 1.3 mg/kg oral, 65 min): 60% |
| CCCSSC[C@@H](C)C(=O)N1CSC[C@H]1C(=O)O [Compound 43, (4R)-3-[(2S)-2-methyl-3-propyldisulfanylpropanoyl]-4-thiazolidinecarboxylic acid] | 70 | 40 | – | – |
| CC(=O)Oc1ccccc1C1SC[C@@H](C(=O)O)N1C(=O)CCSSCCC(=O)N1C(c2ccccc2OC(C)=O)SC[C@H]1C(=O)O (stereo partly drawn) [Compound 3, (4R,4'R)-3,3'-[3,3'-Dithiobis(propanoyl)]bis[2-(2-acetoxyphenyl)-4-thiazolidinecarboxylic acid]] | 15 | 55 | 870 | – |
| O=C(O)[C@@H]1CSC(c2ccccc2O)N1C(=O)CCSSCC1CCCO1 (stereo partly shown) [Compound 39] | – | – | 840 | – |
| C[C@H](CS)C(=O)N1C(c2ccccc2O)SC[C@H]1C(=O)O (stereo partly drawn) [Compound 2A, (4R)2-(2-hydroxyphenyl)-3-[(2S)-3-mercapto-2-methylpropanoyl]-4-thiazolidinecarboxylic acid, reference compound] | – | – | – | Inhibition (%) of pressor response to angiotensin I ([1]; dose 1.4 mg/kg oral, 25 min): 40%; Inhibition (%) of pressor response to angiotensin I ([1]; dose 1.4 mg/kg oral, 65 min): 30% |
| O=C(O)[C@@H]1CSC(c2ccccc2O)N1C(=O)CCCSSCCCC(=O)N1C(c2ccccc2O)SC[C@H]1C(=O)O (stereo partly shown) [Compound 4] | – | – | 96 | – |
| C[C@H](CSSC[C@@H](C)C(=O)N1C(c2ccccc2O)SC[C@H]1C(=O)O)C(=O)N1C(c2ccccc2O)SC[C@H]1C(=O)O (stereo partly drawn) [Compound 2, (4R,4'R)-3,3'-[3,3'-Dithiobis[(2S)-2-methylpropanoyl]]bis[2-(2-hydroxyphenyl)-4-thiazolidinecarboxylic acid]] | – | – | 97 | Inhibition (%) of pressor response to angiotensin I ([1]; dose 1.4 mg/kg oral, 25 min): 30%; Inhibition (%) of pressor response to angiotensin I ([1]; dose 1.4 mg/kg oral, 65 min): 35% |
| O=C(O)[C@@H]1CSC(c2ccccc2)N1C(=O)CCSSCCC(=O)N1C(c2ccccc2)SC[C@H]1C(=O)O (stereo partly shown) [Compound 7] | – | – | 200 | – |
| C[C@H](CSSC[C@@H](C)C(=O)N1C(c2cc(Cl)ccc2O)SC[C@H]1C(=O)O)C(=O)N1C(c2cc(Cl)ccc2O)SC[C@H]1C(=O)O (stereo partly drawn) [Compound 11, (4R,4'R)-3,3'-[3,3'-dithiobis[(2S)-2-methylpropanoyl]]bis[2-(5-chloro-2-hydroxyphenyl)-4-thiazolidinecarboxylic acid]] | – | – | 640 | – |
| O=C(O)CCSSCCC(=O)N1C(c2ccccc2O)SC[C@H]1C(=O)O (stereo partly drawn) [Compound 41, (4R)-3-[3-(2-Carboxyethyldisulfanyl)propanoyl]-2-(2-hydroxyphenyl)-4-thiazolidinecarboxylic acid] | – | – | 20 | Inhibition (%) of pressor response to angiotensin I ([1]; dose 1.3 mg/kg oral, 25 min): 50%; Inhibition (%) of pressor response to angiotensin I ([1]; dose 1.3 mg/kg oral, 65 min): 60% |
| O=C(O)[C@@H]1CSC(c2ccccc2O)N1C(=O)CCSSCCC(=O)N1C(c2ccccc2O)SC[C@H]1C(=O)O (stereo partly drawn) [Compound 1, (4R,4'R)-3,3'-[3,3'-Dithiobis(propanoyl)]bis[2-(2-hydroxyphenyl)-4-thiazolidinecarboxylic acid]] | 45 | 55 | 97 | LD50 [2]: 15000 mg/kg |
| C[C@@H]1O[C@@H](Oc2c(-c3ccc(O)c(O)c3)oc3cc(O)cc(O)c3c2=O)[C@H](O)[C@H](O)[C@H]1O [Control, Quercitrin, reference compound] | – | – | – | IC50 (Aldose reductase): 90 nM |
| O=C(O)[C@@H]1CSC(c2cccc(O)c2)N1C(=O)CCSSCCC(=O)N1C(c2cccc(O)c2)SC[C@H]1C(=O)O (stereo partly shown) [Compound 10] | – | – | 730 | – |
| O=C(O)[C@@H]1CSC(c2ccccc2O)N1C(=O)CSSCC(=O)N1C(c2ccccc2O)SC[C@H]1C(=O)O (stereo partly shown) [Compound 15] | – | – | 310 | – |
| O=C(O)C1CCC(c2ccccc2O)N1C(=O)CCS (single isomer, unassigned) [Compound 27A, α-(+)5-(2-hydroxyphenyl)-1-(3-mercaptopropanoyl)-2-pyrrolidinecarboxylic acid, reference compound] | – | – | – | Inhibition (%) of pressor response to angiotensin I ([1]; dose 1.3 mg/kg oral, 25 min): 70%; Inhibition (%) of pressor response to angiotensin I ([1]; dose 1.3 mg/kg oral, 65 min): 50% |
| O=C(O)C1CCC(c2ccccc2O)N1C(=O)CCSSCCC(=O)N1C(C(=O)O)CCC1c1ccccc1O (single isomer, unassigned) [Compound 27] | – | – | – | Inhibition (%) of pressor response to angiotensin I ([1]; dose 1.3 mg/kg oral, 25 min): 65%; Inhibition (%) of pressor response to angiotensin I ([1]; dose 1.3 mg/kg oral, 65 min): 55% |
| COc1ccc(C2SC[C@@H](C(=O)O)N2C(=O)[C@H](C)CS)cc1 (stereo partly drawn) [Compound 37A, (4R)3-[(2S)-3-mercapto-2-methylpropanoyl]-2-(4-methoxyphenyl)-4-thiazolidinecarboxylic acid, reference compound] | 40 | 20 | – | – |
| C[C@H](CSSC[C@@H](C)C(=O)N1C(c2cccc3ccccc23)SC[C@H]1C(=O)O)C(=O)N1C(c2cccc3ccccc23)SC[C@H]1C(=O)O (stereo partly shown) [Compound 24] | – | – | 870 | – |
| CCCSSCCC(=O)N1C(c2ccccc2O)SC[C@H]1C(=O)O (stereo partly drawn) [Compound 34, (4R)-2-(2-Hydroxyphenyl)-3-(3-propyldisulfanylpropanoyl)-4-thiazolidinecarboxylic acid] | 45 | 55 | 860 | – |
| C=CCSSC[C@@H](C)C(=O)N1C(c2ccc(OC)cc2)SC[C@H]1C(=O)O (stereo partly shown) [Compound 37] | 60 | 35 | – | – |
| O=C(O)[C@@H]1CSC(c2ccccc2O)N1C(=O)CCS (stereo partly drawn) [Compound 1A, (4R)2-(2-hydroxyphenyl)-3-(3-mercaptopropanoyl)-4-thiazolidinecarboxylic acid, reference compound] | 55 | 35 | – | – |
| Cc1ccc(C2SC[C@@H](C(=O)O)N2C(=O)[C@H](C)CSSC[C@@H](C)C(=O)N2C(c3ccc(C)cc3)SC[C@H]2C(=O)O)cc1 (stereo partly drawn) [Compound 8, (4R,4'R)-3,3'-[3,3'-dithiobis[(2S)-2-methylpropanoyl]]bis[2-(4-methylphenyl)-4-thiazolidinecarboxylic acid]] | – | – | 450 | – |
| C[C@H](CS)C(=O)N1CSC[C@H]1C(=O)O [Compound 43A, (4R)3-[(2S)-3-mercapto-2-methylpropanoyl]-4-thiazolidinecarboxylic acid, reference compound] | 50 | 30 | – | – |
